What was measured:
Type in all cases: in vivo, human
[1] = tested on: patients suffering from FBSS (lumbar pain); assay: Clinical study: pain evaluation by Numeric Rating Scales (NRS) after peridural infiltration; conditions: 11 FBSS patients, epidural 1 ml of 50 or 100 mg/ml, +1 week
Excerpt: 11 patients (7 males and 4 females), of ages ranging between 48 and 78 years, and suffering from FBSS, were studied (according to the operative diagram in FIG. 1) for a 9-month period. As criteria for inclusion in the treatment protocol were considered: • failed back surgery syndrome (FBSS) • lumbar pain present for >3 months • absence of improvement of pain with administration of oral pharmacological analgesics/opioids-based therapy; • non-eligibility for lumbar revision surgery treatment. • patients refusing treatment; • carriers of infections localized at the level of the infiltration site; • undergoing systemic infective processes; • coagulation alterations. After having been evaluated under the clinical instrumental standpoint, the patient was subjected to infiltrative treatment upon coagulation testing and replacement of oral anticoagulant therapy (possibly taken by the patient), with low molecular weight heparin. Infiltration was conducted in Day Surgery regimen, inviting the patient to have it on an empty stomach. […] The drug at issue, sodium 2-mercaptoethansulfonate, was contained in an ampoule with a 10% concentration; for each infiltration, 1 ml was collected and the concentration used was of 50 mg/ml in some cases and of 100 mg/ml in other cases. The entire infiltration procedure required 10-15 min. Of the 11 patients, 2 had already undergone 3 surgical interventions to the lumbar rachis, other 2 had undergone 2 interventions, and 7 had undergone 1 intervention. […] In particular, we asked to assign a value (comprised between 0 and 10) to pain intensity in a standing position, in horizontal posture, and while sitting; evaluation of the 3 parameters helped us in pain classification, and was aimed at determining musculoskeletal and gravity activation at different instants and the quantitative impact on pain intensity caused by the assuming of the different positions. […] To the first answer a score equal to 0 was assigned, to the second one equal to 1, and so on until the sixth answer that would be equal to 5. the score is calculated as follows: TOTAL SCORE/(5×9)×100.

[2] = tested on: patients suffering from FBSS (lumbar pain); assay: Clinical study: lumbar rachis functionality by Oswestry Disability Index (ODI); conditions: 11 FBSS patients; epidural 1 ml of 50 or 100 mg/ml; +1 week; before the procedure 52.18%; P=0.05
Excerpt: 11 patients (7 males and 4 females), of ages ranging between 48 and 78 years, and suffering from FBSS, were studied (according to the operative diagram in FIG. 1) for a 9-month period. As criteria for inclusion in the treatment protocol were considered: • failed back surgery syndrome (FBSS) • lumbar pain present for >3 months • absence of improvement of pain with administration of oral pharmacological analgesics/opioids-based therapy; • non-eligibility for lumbar revision surgery treatment. • patients refusing treatment; • carriers of infections localized at the level of the infiltration site; • undergoing systemic infective processes; • coagulation alterations. After having been evaluated under the clinical instrumental standpoint, the patient was subjected to infiltrative treatment upon coagulation testing and replacement of oral anticoagulant therapy (possibly taken by the patient), with low molecular weight heparin. […] In particular, we asked to assign a value (comprised between 0 and 10) to pain intensity in a standing position, in horizontal posture, and while sitting; evaluation of the 3 parameters helped us in pain classification, and was aimed at determining musculoskeletal and gravity activation at different instants and the quantitative impact on pain intensity caused by the assuming of the different positions. […]

[3] = tested on: patients suffering from FBSS (lumbar pain); assay: Clinical study: functional improvement by Odom's criteria; conditions: out of 11 FBSS patients; after epidural infiltration
Excerpt: 11 patients (7 males and 4 females), of ages ranging between 48 and 78 years, and suffering from FBSS, were studied (according to the operative diagram in FIG. 1) for a 9-month period. As criteria for inclusion in the treatment protocol were considered: • failed back surgery syndrome (FBSS) • lumbar pain present for >3 months • absence of improvement of pain with administration of oral pharmacological analgesics/opioids-based therapy; • non-eligibility for lumbar revision surgery treatment. • patients refusing treatment; • carriers of infections localized at the level of the infiltration site; • undergoing systemic infective processes; • coagulation alterations. After having been evaluated under the clinical instrumental standpoint, the patient was subjected to infiltrative treatment upon coagulation testing and replacement of oral anticoagulant therapy (possibly taken by the patient), with low molecular weight heparin. Infiltration was conducted in Day Surgery regimen, inviting the patient to have it on an empty stomach. […] The drug at issue, sodium 2-mercaptoethansulfonate, was contained in an ampoule with a 10% concentration; for each infiltration, 1 ml was collected and the concentration used was of 50 mg/ml in some cases and of 100 mg/ml in other cases. The entire infiltration procedure required 10-15 min. Of the 11 patients, 2 had already undergone 3 surgical interventions to the lumbar rachis, other 2 had undergone 2 interventions, and 7 had undergone 1 intervention. In particular, 4 had undergone an herniectomy, 2 an hemilaminectomy, 2 an herniectomy plus an hemilaminectomy and 3 a vertebral stabilization intervention. The levels involved were comprised between L1 and S1, with an extension range of 2 to 5 levels. Each patient was subjected, on average, to 2 (range comprised between 1 and 4) peridural infiltrations of sodium 2 mercaptoethane sulfonate (FIG. 2).

## O=S(=O)([O-])CCS.[Na+] [sodium 2-mercaptoethane sulfonate, Sodium 2-mercaptoethane sulfonate]
[1]; on average 2 infiltrations, pre-procedure mean 7.0, P=0.002
  mean pain NRS (0-10) in a sitting position following the procedure: 5.55
[1]; pre-procedure mean 6.64, P=0.001
  mean pain NRS (0-10) in a horizontal position following the procedure: 4.82
[1]; pre-procedure mean 7.36, P=0.01
  mean pain NRS (0-10) standing following the procedure: 5.73
[2]
  Oswestry Disability Index (ODI), average after the procedure: 41.64%
[3]
  Odom's criteria: number of patients with Excellent result: 0 patients
  Odom's criteria: number of patients with Fair result: 4 patients
  Odom's criteria: number of patients with Good result: 7 patients
  Odom's criteria: number of patients with Poor result: 0 patients
  Odom's criteria: share of patients with Fair result: 36.4%
  Odom's criteria: share of patients with Good result: 63.6%
